From patent US8367873B2, “Phenyl-substituted bicyclooctane-1,3-dione derivatives” (Bayer Cropscience AG, priority 2008, dated 2013)

Experiments:
Assay type in all cases: in vivo
[1] = tested on: monocotylidonous and dicotylidonous weed and crop plants; assay: Herbicidal post-emergence action (other test plants); conditions: post-emergence method, 80 g/ha
Summary of the method: (§1)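 Greenhouse-grown weeds were treated post-emergence at the one-leaf stage, two to three weeks after sowing in sandy loam. Compounds formulated as WP were sprayed at various rates in 600 l/ha water with 0.2% wetting agent. Damage was scored visually after about three weeks versus untreated controls (0% = like control, 100% = dead).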

Setaria viridis [2] = assay: Herbicidal post-emergence action; conditions: post-emergence method, 80 g/ha
Summary of the method: as §1

Lolium multiflorum [3] = assay: Herbicidal post-emergence action; conditions: post-emergence method, 80 g/ha
Summary of the method: as §1

Alopecurus myosuroides [4] = assay: Herbicidal post-emergence action; conditions: post-emergence method, 80 g/ha
Summary of the method: as §1

Echinocloa crus-galli [5] = assay: Herbicidal post-emergence action; conditions: post-emergence method, 80 g/ha
Summary of the method: as §1

[6] = tested on: monocotylidonous and dicotylidonous weed and crop plants; assay: Herbicidal pre-emergence action (other test plants); conditions: pre-emergence method, 80 g/ha, greenhouse, visual assessment vs untreated controls
Summary of the method: (§2)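 Visual percent effect relative to untreated controls (0% = like control, 100% = dead) assessed three weeks after treatment in the greenhouse. Compounds, as wettable powders in water (600 l/ha, 0.2% wetting agent), were sprayed at different amounts onto covering soil over seeds sown in sandy loam.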

Setaria viridis [7] = assay: Herbicidal pre-emergence action; conditions: pre-emergence method, 80 g/ha, greenhouse, visual assessment vs untreated controls
Summary of the method: as §2

Lolium multiflorum [8] = assay: Herbicidal pre-emergence action; conditions: pre-emergence method, 80 g/ha, greenhouse, visual assessment vs untreated controls
Summary of the method: as §2

Alopecurus myosuroides [9] = assay: Herbicidal pre-emergence action; conditions: pre-emergence method, 80 g/ha, greenhouse, visual assessment vs untreated controls
Summary of the method: as §2

Echinocloa crus-galli [10] = assay: Herbicidal pre-emergence action; conditions: pre-emergence method, 80 g/ha, greenhouse, visual assessment vs untreated controls
Summary of the method: as §2

| Structure (SMILES) | herbicidal effect against AVEFA (Avena fatua) [1] | herbicidal effect against SETVI (Setaria viridis) (Setaria viridis [2]) | herbicidal effect against LOLMU (Lolium multiflorum) (Lolium multiflorum [3]) | herbicidal effect against ALOMY (Alopecurus myosuroides) (Alopecurus myosuroides [4]) | herbicidal effect against ECHCG (Echinochloa crus-galli) (Echinocloa crus-galli [5]) | herbicidal effect AVEFA [6] | herbicidal effect SETVI (Setaria viridis [7]) | herbicidal effect LOLMU (Lolium multiflorum [8]) | herbicidal effect ALOMY (Alopecurus myosuroides [9]) | herbicidal effect ECHCG (Echinocloa crus-galli [10]) |
| --- | --- | --- | --- | --- | --- | --- | --- | --- | --- | --- |
| CCc1cc(C)cc(CC)c1C1=C(OC(=O)OC(C)C)C2CC3(CC2C1=O)OCCCO3 (stereo not drawn) [I-c-34] | 100% | 90% | 100% | 100% | 100% | 60% | 80% | 100% | 90% | 100% |
| CCOC(=O)OC1=C(c2c(C)cc(C)cc2OC)C(=O)C2CC3(CC12)OCCCO3 (racemic) [I-c-63] | 100% | 100% | 100% | 100% | 100% | 70% | 50% | 100% | 80% | 50% |
| CCOC1COC2(C[C@@H]3C(O)=C(c4c(CC)cc(C)cc4CC)C(=O)[C@@H]3C2)OC1 (relative stereo) [I-a-28] | 100% | 100% | 100% | 100% | 100% | 80% | 90% | 100% | 100% | 100% |
| CCc1cc(C)cc(CC)c1C1=C(OC(=O)C(C)C)C2CC3(COC(C)(C)O3)CC2C1=O (stereo not drawn) [I-b-3] | 40% | 20% | 100% | 100% | 100% | 60% | 50% | 100% | 90% | 0% |
| Cc1cc(C)c(C2=C(O)C3CC4(CC3C2=O)OCCCCO4)c(C)c1 (stereo not drawn) [I-a-40] | 60% | 80% | 90% | 80% | 90% | 40% | 50% | 100% | 50% | 80% |
| CCc1cc(C)cc(CC)c1C1=C(OC(=O)OC)C2CC3(CC2C1=O)OCCS3 (mixture of isomers) [I-c-31] | 90% | 90% | 100% | 70% | 100% | 80% | 60% | 0% | 90% | 60% |
| CCc1cc(C)cc(CC)c1C1=C([O-])C2CC3(CC2C1=O)OCC(OC)CO3.[Na+] (stereo not drawn) [I-f-13] | 100% | 100% | 100% | 100% | 100% | 0% | 90% | 100% | 100% | 100% |
| Cc1cc(C)c(C2=C(OC(=O)C(C)C)C3CC4(CC3C2=O)OCCO4)c(C)c1 (stereo not drawn) [I-b-39] | 20% | 90% | 100% | 60% | 100% | 50% | 0% | 80% | 60% | 10% |
| CCc1cc(C)cc(C)c1C1=C(OC(=O)C(C)C)C2CC3(CC2C1=O)OCC=CCO3 (stereo not drawn) [I-b-76] | 90% | 100% | 100% | 90% | 100% | 60% | 70% | 100% | 100% | 100% |
| CCC(=O)OC1=C(c2c(CC)cc(C)cc2CC)C(=O)C2CC3(COC(C)(C)O3)CC12 (stereo not drawn) [I-b-6] | 100% | 90% | 100% | 90% | 100% | 80% | 60% | 100% | 100% | 30% |
| CCc1cc(C)cc(CC)c1C1=C(O)C2CC3(CC2C1=O)OCCS3 (mixture of isomers) [I-a-35] | 80% | 90% | 100% | 100% | 100% | 80% | 70% | 100% | 80% | 70% |
| C#CCON=C1CC2C(=O)C(c3c(CC)cc(C)cc3CC)=C(OC(=O)OCC)C2C1 (stereo not drawn) [I-c-41] | 80% | 20% | 100% | 100% | 100% | 40% | 40% | 100% | 90% | 60% |
| CCc1cc(C)cc(CC)c1C1=C(OC(=O)C(C)C)C2CC3(COC(C)(C)O3)CC2C1=O (stereo not drawn) [I-b-7] | 100% | 90% | 100% | 90% | 100% | 80% | 70% | 100% | 100% | 60% |
| CCc1cc(C)cc(CC)c1C1=C(O)C2CC3(COC(CC)O3)CC2C1=O (stereo not drawn) [I-a-6] | 70% | 90% | 100% | 90% | 100% | 60% | 60% | 100% | 100% | 60% |
| CCc1cc(C)cc(CC)c1C1=C([O-])C2CC3(CC2C1=O)OCCO3.[Na+] (stereo not drawn) [I-f-15] | 90% | 100% | 100% | 80% | 100% | 60% | 90% | 100% | 100% | 100% |
| CCc1cc(C)cc(CC)c1C1=C(OC(=O)C(C)C)C2CC3(CC2C1=O)OCC=CCO3 (stereo not drawn) [I-b-12] | 100% | 100% | 100% | 90% | 100% | 70% | 90% | 100% | 100% | 100% |
| CCOC(=O)OC1=C(c2c(CC)cc(C)cc2CC)C(=O)C2CC(=NOCC3CC3)CC12 (stereo not drawn) [I-c-40] | 0% | 100% | 100% | 100% | 100% | 60% | 40% | 80% | 80% | 0% |
| CCc1cc(C)cc(C)c1C1=C(O)C2CC3(CC2C1=O)OCCCCO3 (stereo not drawn) [I-a-61] | 90% | 90% | 100% | 90% | 100% | 60% | 60% | 100% | 70% | 80% |
